From patent US7560439B2, “Method for increasing the gene expression of transfected genes” (Sigma-Tau Industrie Farmaceutiche Riunite S.p.A., priority 2000, dated 2009)
Values joined by “and” are separate entries in the source; they are usually repeats but may differ in a detail not shown here. Equal values may be shown once.

Assays:
[1] = system: luciferase expression from transfected pRL-CMV plasmid in HeLa cells; assay: Luciferase assay in HeLa cells transiently transfected with pRL-CMV plasmid; type: cell-based; conditions: for RLU/mg mean: HeLa 100000/12-well plates, 1.5 μg/well
Protocol: Cell cultures. The uterine cervical carcinoma cell line HeLa, ATCC was used. The cells were cultured in RPMI 1640 Medium (eurobio), containing antibiotics and 10% foetal calf serum.
Treatment with acetyl-L-carnitine (ALC). 4×10^6 and 5×10^6 cells cultured in a medium containing ALC at final concentrations of 5 mM and 10 mM, respectively, were seeded in two 125 cm^3 flasks, whereas 2×10^6 cells not treated with ALC were plated in a 75 cm^3 flask. The treatment was repeated after 48 h (coinciding with the seeding of the cells for transfection) and after 72 h (at the end of transfection) and was also repeated after 120 h only in the case of samples transfected for lysis at 72 h.
Transient transfection of pRL-CMV plasmid. The cells were seeded for transfection 24 h before in 12-well plates (Corning), in amounts corresponding to 10^5 cells per well. The transfection was carried out in triplicate for each sample using the liposome DOTAP (Boehringer-Mannheim, Indianapolis, Ind.) and the plasmid pRL-CMV (Promega cat. N° E2261). In brief, 1.5 μg/well of DNA and 9.2 μM/well of liposome were used per sample, considering a final volume of 1050 μl/sample; the transfection mixture (25 μl /sample) was left at ambient temperature for 30 min and then HBS 2× (20 mM HEPES, 150 mM NaCl, pH 7.4) was added in amounts of 25 μl/ sample, and 50 μl/sample of the solution thus obtained was added to the cells for 5 hours. After carrying out three washings with PBS (phosphate buffer pH 7.4) without calcium and magnesium, the cells were cultured in growth medium containing ALC at the concentrations indicated in the treatments up to the time of cell lysis for the luciferase assay. As a control, naked DNA was added in a 1× HBS solution.
The cells were washed with PBS (phosphate buffer pH 7.4) without calcium and magnesium and subjected to lysis by means of the addition of 200 μl of lysis buffer contained in the GeneLux L002-100 kit (Wallac) used for the luciferase assay. After 20 min, total proteins were collected and 10 μl of each sample were assayed for luciferase, following the procedures indicated in the kit; the assay was carried out in 96-multiwell plates using the Victor^2 luminometer (Wallac). The luminescence readings obtained, expressed in relative light units (RLU), were normalised for mg of total proteins, calculated using the Bradford Method.

[2] = system: transfected intracellular plasmidic DNA (pRL-CMV) in HeLa cells; assay: Slot blot quantification of transfected intracellular plasmidic DNA; type: cell-based
Protocol: To verify if the positive effect of ALC on luciferase activity was related to an activation of transcriptional machinery or to an increasing of cell permeability, we decided to quantify the total amount of transfected intracellular plasmidic DNA by Slot blot analysis.
Cell culture. Cervical carcinoma cell line HeLa (ATCC) were maintained in RPMI medium (Europio) supplemented with 10% foetal calf serum, 1% P/S in a humidified atmosphere with 5% CO2 ALC treatment 5×10^6 cells were plated in a 125-cm^3 flask and maintained in RPMI, supplemented as described above, containing ALC at two concentrations (5 mM and 10 mM) 4 days before transfection. The treatment was repeated at the end of transfection. Untreated cells were cultured in the same condition and used as control.
Transient Expression of pRL-CMV. 10^5 cells/well were plated 1 day before transfection in 12 multiwells plate (Corning). DOTAP liposome (Boehringer-Mannheim, Indianapolis, Ind.) and pRL-CMV plasmid (Promega cat. N° E2261) were used for transfection, 6 wells/sample. Briefly, 1.5 μg/well of DNA and a water solution of liposome at 9.2 μM were mixed at room temperature (25 μl/sample) to form DNA-liposome complex. After incubation for 30 min, the same volume/well of HBS 2× (20 mM HEPES, 150 mM NaCl, pH 7.4) was added and the transfection mixture was aliquotated (50 μl/well in supplemented medium). The cells were incubated with the complex for 5 h and the complex removed by washing with PBS (phosphate-buffered saline, pH 7.4, Ca^++ and Mg^++ free). Cells were maintained in supplemented medium, containing ALC, for 24h and then used for analysis. Nude DNA in HBS 1× (pRL-CMV) was transfected as control.
DNA extraction. Total cellular DNA was extracted by alkaline lysis from transfected cells according to the method reported by Maniatis. After washing with PBS, cells were collected with PBS (1 ml/well) and centrifuged at 1500×g for 10 min at r.t.
According to protocol, each pellet, placed on ice, was lysed using: 100 μl of solution I [50 mM glucose, 25 mM Tris-HCl (pH=8), 10 mM EDTA (pH=8)], 200 μl of solution II [0.2 N NaOH, 1% SDS], 150 μl of solution III (5M potassium acetate, glacial acetic acid]. After centrifugation at 12000×g for 5 min at 4° C., surnatant was collected and DNA was precipitated with EtOH. Pellet was resuspended in TE 1× (50 μl/sample).
Probe labelling. The probe, the luciferase gene, was obtained by digestion of pRL-CMV with HindIII for 2 h at 37° C. and then with BamHI in the same condition. After digestion, the mixture was electrophoresed on 0.8% agarose gel in TAE 1× buffer (40 mM Tris-HCl (pH 7.8), 1.1 mM EDTA and 37 mM sodium acetate) and the fragment corresponding to luciferase gene was isolated by excision. The labelling of luciferase gene was performed using the Rediprime II DNA labelling system (Amersham Pharmacia biotech, cat n. RPN 1633) and Redivue stabilised [α-^32P]dCTP (Amersham Pharmacia biotech, cat n. AA 0005) according to purchased protocol.
Slot Blot. DNA samples were absorbed on positively charged Nylon membrane (Boehringer, cat. n. 1209299) using Biorad Slot Blot apparatus. The DNA was linked to the filter by U.V. Stratalinker-2400 (Stratagene). After pre-incubation of the filter with QuikHyb Hybridization Solution (Stratagene, cat. n. 201220) for 20 min at 68° C., 2.5×10^6 cpm/ml of labelled probe was added, after boiling, with salmon sperm DNA, for 2 min. The hybridization was performed at 68° C. for 1 h, and then the filter was washed twice with buffer I (SSC 2×, SDS 0.1%) for 15 min at room temperature and then with buffer II (SSC 0.1×, SDS 0.1%) for 30 min at 60° C. The filter was exposed to “Phosphor Imager” box and then analysed by densitometry using a IPlab Gel software.

[3] = Dotap/DNA complex + ALC 5 mM, slots 19-24
[4] = Dotap/DNA complex + ALC 10 mM, slots 31-36
[5] = nude DNA + ALC 5 mM, slots 13-18

With `CC(=O)O[C@H](CC(=O)[O-])C[N+](C)(C)C` [ALC, acetyl L-carnitine] the RLU/mg mean ([1]; 5 mM ALC + ETS (no Dotap)) was 17,025 RLU/mg, the RLU/mg mean ([1]; 5 mM ALC + LUC (no Dotap)) was 18,060 RLU/mg and the RLU/mg mean ([1]; 5 mM ALC + dota + LUC) was 779,340 RLU/mg. For the same compound, the RLU/mg mean ([1]; 5 mM ALC + dotap + ETS) was 22,411 RLU/mg, the “increase of mean RLU per mg of total proteins as compared to untreated samples” value ([1]; 5 mM ALC, lysates at 24 h) was “approximately 1.6 fold” and the RLU/mg mean ([1]; 10 mM ALC + ETS (no Dotap)) was 17,724 RLU/mg. The RLU/mg mean ([1]; 10 mM ALC + LUC (no Dotap)) was 20,481 RLU/mg, the RLU/mg mean ([1]; 10 mM ALC + dotap + ETS) was 20,520 RLU/mg and the RLU/mg mean ([1]; 10 mM ALC + dotap + LUC) was 750,034 RLU/mg. The “luciferase expression compared with 5 mM ALC” value ([1]; 10 mM ALC, lysates at 24 h) was “no additional increase”, the “RLUs per mg of proteins, treated vs untreated samples” value ([1]; lysates at 48 h after transfection) was “no significant differences” and the luciferase expression ([1]; lysates at 72 h) was “no luciferase expression”. For the same compound, the “Slot blot densitometry vs untreated” value ([2]; 10 mM ALC) was “little decrease”, the “Slot blot densitometry, transfected cells in presence vs absence of ALC” value ([2]; 24 h after transfection) was “no difference” and the “densitometric volume, mean” value [2, 3] was 240634.5 relative units. For the same compound, the “densitometric volume, single values” [2, 3] was 222013 relative units and 255756 relative units and 253422 relative units and 234654 relative units and 239053 relative units and 238909 relative units, the “densitometric volume, mean” value [2, 4] was 165345 relative units and the “densitometric volume, single values” [2, 4] was 173870 relative units and 225644 relative units and 116848 relative units and 114911 relative units and 157762 relative units and 203035 relative units. The “densitometric volume, mean” value ([2]; Nude DNA + ALC 10 mM, slots 25-30) was 52595.2 relative units, the “densitometric volume, mean” value [2, 5] was 61441.5 relative units and the “densitometric volume, single values” [2, 5] was 59846 relative units and 58324 relative units and 61431 relative units and 70373 relative units and 63045 relative units and 55630 relative units.
